The test system of data set [1] is MT-4 cells (adult human T-cell leukemia cells). Description: Cellular toxicity, MTS cell viability, MT-4 cells. Format: cell-based. The settings on record: Homo sapiens, MT4, 120 h, 5 day, MTS viability. The method, then: (§1) 6D-2 cells (MCF-7 human breast cancer cells stably transfected with luciferase linked to the 5′ and 3′UTRs of human HER2) were added to 96-well plates at 7500 cells per well in 200 μL medium and incubated for 24 hours at 100% humidity, 5% CO2, and 37° C. Compounds were diluted from DMSO stock solutions into medium and were added at various concentrations. The 6D-2 cells were incubated for 16 hours at which time the volume of medium in each well was reduced to 100 μL using a plate washer. 20 μL of MTS cell viability reagent (Promega, Madison, Wis.) was then added to each well, and the plates were incubated for 1-4 hours. A plate containing wells with 100 μL medium plus MTS reagent was prepared to determine the background reading. The plates were read on the Wallac 2 plate reader (PerkinElmer Life Science, Boston, Mass.) at 490 nm. Percent viability was calculated as (O.D. of compound treated cells−background O.D.)/(O.D. of DMSO treated cells−background O.D.)×100. MT-4 cells (adult human T-cell leukemia cells) were plated at 1.5×10^5 cells per well in 200 μL medium and incubated for at least one hour before the addition of compounds. The cells were incubated for 5 days at 100% humidity, 5% CO2, and 37° C. Cell viability was determined as described for 6D-2 cells.
(§2) Compounds of the invention containing a pyrrolidine substituent were tested for toxicity to cancerous and non-cancerous cells. 6D-2 cellular activity is representative of potency as an antitumor agent. MT-4 cellular activity is representative of general toxicity. A high IC50 for MT-4 cells and a low IC50 for 6D-2 cells is indicative of a compound of potential therapeutic use in treating or preventing proliferative diseases, such as cancer.

Data set [2] concerns primary peripheral blood mononuclear cells (PBMCs). Put plainly: Viability of PBMCs on administration of MES 51151 (FIG. 3). Format: cell-based. The note with it: concentration of 10 μM. The method, then:
(§3) FIG. 3 is a graph of the effect of administration of MES 51151 on the viability of 6D-2 cells and PBMCs.
(§4) Toxicity of the transfected cells increased with increased concentration of MES 51151 administered to the cells (FIG. 3, showing the percent viable 6D-2 cells compared to control cells). MES 51151 was administered to primary peripheral blood mononuclear cells (PBMCs) to test for its effect on cell toxicity. MES 51151 was not toxic to the PBMCs (FIG. 3, showing the percent viable PBMCs compared to control cells). The EC50 of MES 51151 when administered to the 6D-2 cancer cell line was less than 100 nM, yet MES 51151 was not toxic to PBMCs even when administered at a concentration of 10 μM. Therefore, the therapeutic index of MES 51151 is at least 100, and may be even higher. […] Thus, this compound may potentially be employed for the treatment or prevention of proliferative diseases, including cancer.

For data set [3], the system named is luciferase reporter operatively linked to HER2 5′ and 3′UTRs. Description: HER2 UTR/luciferase reporter screening assay in stably transfected MCF7 (6D-2) cells. It counts as cell-based, human. The note with it: HER2 5′ and 3′UTR/luciferase reporter. The procedure:
The HER2 UTR/reporter nucleic acid stably transfected cell system described above was used to identify compounds that either increased or decreased the level of HER2 translation efficiency. Small molecules from a library of candidate compounds (MES library, Message Pharmaceuticals, Malvern, Pa., containing, for example, small molecules from a commercially available Nanoscale Combinatorial Synthesis Inc. (Mountain View, Calif.) library) were administered to 6D-2 cells containing the stably transfected luciferase reporter nucleic acid sequence operatively linked to HER2 5′ and 3′UTRs to identify compounds that modulate HER2 translation efficiency. Each candidate compound was administered at a concentration of 10 μM.
After 16 hours of exposure to the compound, the level of luciferase protein activity was measured in candidate compound-treated cells containing the luciferase construct only, or in cells containing the luciferase/UTRs that were not treated with the candidate compound, or are treated with the candidate compound vehicle only (control cells), and compared to activity levels in candidate compound-treated cells containing the luciferase construct with the UTRs (test cells). […]

Another data set has as its system 6D-2 cancer cell line. Put plainly: Viability of 6D-2 cells on administration of MES 51151 (FIG. 3). Format: cell-based, human. The procedure: as §3, §4
Data set [4] in a line: Cellular toxicity, MTS cell viability, 6D-2 cells. Format: cell-based, human. The note with it: Homo sapiens, MCF7, MTS viability. The procedure:
as §1, §2

Molecules are shown by their SMILES.

Regarding `CC(=O)Nc1ccc(NC2=C(N3CCCC3)C(=O)c3ccccc3C2=O)cc1` [Example 2], the IC50 in data set [1] came out at 80 nM; in data set [4] it was 250 nM. The “Toxicity to PBMCs” value in data set [2] is “not toxic”. The Luciferase activity result in data set [3] is “reduced luciferase activity through toxicity”. The Therapeutic index result in the data set with 6D-2 cancer cell line (6D-2 EC50 versus non-toxic concentration in PBMCs) was “at least 100”. Moreover, the EC50 with 6D-2 cancer cell line (Homo sapiens, 6D-2 cells, toxicity (percent viable cells compared to control), read-out: EC50 when administered to the 6D-2 cancer cell line) was below 100 nM.

The values are drawn from patent US20030232801A1, “Identification of compounds for the treatment or prevention of proliferative diseases” (priority 2001, published 2003).
